These results are taken from US10233180B2, “Substituted nitrogen-containing heterocyclic derivatives, pharmaceutical compositions comprising the same and applications of antitumor thereof” (ZHEJIANG UNIVERSITY, priority 2014, dated 2019).

One experiment has as its target T1, Akt1 (Homo sapiens, UniProt P31749).
T1 construct: purchased 32-021
As to the kind of experiment: AKT1/PKBα KinEASE FP Fluorescein Green Assay (fluorescence polarization kinase kit). It is filed as biochemical. The settings on record: 1 h reaction, read-out: Inhibitory activities against Akt1 (IC50). Here is the method: Second, method for determining the inhibitory activities of substituted nitrogen-containing heterocyclic derivatives in the present invention against Akt1 enzyme:
The inhibitory activities of compounds against AKT1/PKBα are determined by using AKT1/PKBα KinEASE™ FP Fluorescein Green Assay (Green fluorescence detection system of Kinase).
Principle adopted by the fluorescence polarization detection of protein kinase B is a competitive reaction: the phosphorylated tracers labeled with fluorescence will compete with unlabeled phosphorylated products produced by reacting with protein kinase B to combine anti-serine antibodies. […] However, in the reaction mixture containing phosphorylated products, fewer tracers will combine with antibodies (fluorescent tracers are replaced from the antibodies), and signals sent our occur depolarizing. Therefore, the change of polarization is directly related to the activity of protein kinase B in the reaction.
Each of 0.25 μl of compounds with a concentration of 50 μM and the positive control are added to a 384-well plate at room temperature, and each sample is provided with three parallel wells, and then 10 μl of STK Substrate 3 Working Solution, 5 μl of AKT1/PKBα Working Solution, 10 μl of ATP Working Solution are added to each sample respectively, the mixtures are slightly vibrated and shaked for a few minutes. Reaction is carried out just after the adding 10 μl of ATP Working Solution, from this time, reacting for 1 h. After 1 h, 5 μl of STK Stop Mix and 5 μl of STK Antibody Mix are added to each sample respectively to stop the reaction. The samples are maintained for 4 h at room temperature after adding is completed, the polarization values of samples are determined by fluorescence polarization of Microplate Reader (Detection of the signals is valid within 24 h), the inhibitory rate of compounds against the enzyme is calculated by polarization value, and thereby IC50 is calculated.
Experiment is set up four control groups at the same time, which are Buffer Control Wells, Tracer Control Wells, No Enzyme Wells and blank control of dimethyl sulfoxide, respectively. Thus obtained data are used to calculate the inhibitory rate (the preparation methods of above various solution required for determining the activities of compounds against enzyme refer to the specification of the kit of AKT1/PKBα KinEASE™ FP Fluorescein Green Assay Catalog #32-021).
A general note: In fluorescence polarisation assays a small probe gives low polarisation when free and higher when bound to something large.

The test system of experiment [1] is Human ovarian cancer cell strain OVCAR-8. Briefly: MTT assay, inhibition of tumor cell growth in vitro, 72 h. It is filed as cell-based. The settings on record: OVCAR-8, MTT, read-out: Antitumor proliferative activities of tumor cell (IC50, μM) OVCAR-8. Here is the method:
(§1) First, inhibitory activity on tumor proliferation in vitro is determined and the structure activity relationship is preliminarily studied, in which different solid tumor cell strains are selected for determining the antitumor activities in vitro of the synthesized compounds.
(§2) Cell strains: Human ovarian cancer cell strain (OVCAR8), colon adenocarcinoma cell strain (HCT-116)
Medium: OVCAR8: RPMI 1640+Fetal Bovine Serum
(§3) Preparing method of medicines: Dissolving the medicine in DMSO to make a 50 mM stock solution, and diluting it according to a certain ratio to obtain 5 different concentrations.
(§4) Two selected tumor cells OVCAR8 and HCT-116 are incubated at 37° C. in a 5% CO2 incubator, which are subcultured when cells grow up to a density of 70˜90% (adherent cells are subcultured after digesting by Duck's EDTA) for later experiments.
(§5) Compounds are dissolved and diluted by dimethyl sulfoxide (DMSO), and tumor cells OVCAR8 and HCT-116 are seeded in a 96-well plate at a density of 4000 cells/200 μl/well, 1 μl of the compounds are added to each well with the final concentration of 50 μM, 10 μM, 2 μM, 0.4 μM and 0.08 μM, which is incubated for 72 h at 37° C. in a 5% CO2 incubator with DMSO (1%) as blank control.
(§6) The calculating formula of cell inhibitory rate is: cell inhibitory rate %=(the OD value of the control group−the OD value of the medication group)/the OD value of the control group×100%, the half maximal inhibitory concentration (IC50) is obtained by Bliss method.

Experiment [2] concerns human colon cancer cell strain HCT-116. The description is as above. In kind it is cell-based. Conditions: HCT-116, MTT, read-out: Antitumor proliferative activities of tumor cell (IC50, μM) HCT-116 (converted). Here is the method: as §1, §2
HCT-116: RPMI 1640+Fetal Bovine Serum
as §3, §4, §5, §6

One may read the IC50 as the point on the concentration scale where inhibition reaches its midpoint.

Where two headings read alike, the source gives them in different places.

T1 sequence (P31749 whole entry): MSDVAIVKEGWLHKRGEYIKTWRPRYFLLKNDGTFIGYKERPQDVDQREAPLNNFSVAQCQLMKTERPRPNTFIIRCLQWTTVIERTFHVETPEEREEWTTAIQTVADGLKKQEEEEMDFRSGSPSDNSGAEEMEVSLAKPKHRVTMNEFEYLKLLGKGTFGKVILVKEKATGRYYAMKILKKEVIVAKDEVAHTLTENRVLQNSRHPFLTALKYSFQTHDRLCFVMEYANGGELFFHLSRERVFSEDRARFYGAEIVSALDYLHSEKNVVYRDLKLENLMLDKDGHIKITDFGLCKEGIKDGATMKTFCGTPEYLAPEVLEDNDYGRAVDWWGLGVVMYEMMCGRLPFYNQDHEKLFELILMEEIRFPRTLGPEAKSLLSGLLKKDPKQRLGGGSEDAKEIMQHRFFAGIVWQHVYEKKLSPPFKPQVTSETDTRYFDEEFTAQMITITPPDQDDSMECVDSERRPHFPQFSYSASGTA

“5-ethyl-1-methyl-4-(4-ethyl-1-methyl-1H-pyrazol-5-yl)-N-(3,4-trans-4-(piperidin-3-yl)piperidin-3-yl)-1H-pyrrole-2-formamide [Compound 17]”: the IC50 at Akt1 is 0.028 µM; in experiment [1], 1.43 µM; in experiment [2], 3.4 µM.

On to `Cc1nc(C(=O)N[C@H]2CNCC[C@@H]2C2CCCNC2)ccc1-c1c(Br)cnn1C` (mixture of isomers) [Compound 59, 6-methyl-5-(4-bromo-1-methyl-1H-pyrazol-5-yl)-N-(3,4-trans-4-(piperidin-3-yl)piperidin-3-yl)pyridinyl-2-formamide], for which the concentration for half-maximal inhibition (IC50) on Akt1 was 0.142 µM; in experiment [1] (Homo sapiens) it was 7.88 µM; in experiment [2] (Homo sapiens), 8.33 µM.

As for `Cn1nccc1-c1coc(C(=O)N[C@H]2CNCC[C@@H]2c2ccccc2)c1` (racemic) [Compound 1, 4-(1-methyl-1H-pyrazol-5-yl)-N-(3,4-trans-4-phenylpiperidin-3-yl)furan-2-formamide], the IC50 was 0.072 µM on Akt1, 1.34 µM in experiment [1] (Homo sapiens) and 3.98 µM in experiment [2] (Homo sapiens).

With `Cn1ncc(Cl)c1-c1cc(C(=O)N[C@H]2CNCC[C@@H]2c2ccc(Cl)cc2)oc1Cl` (racemic) [Compound 2, 5-chloro-4-(4-chloro-1-methyl-1H-pyrazol-5-yl)-N-(3,4-trans-4-(4-chlorphenyl)piperidin-3-yl)furan-2-formamide], the IC50 is 0.099 µM on Akt1, 6.45 µM in experiment [1] (Homo sapiens) and 1.41 µM in experiment [2] (Homo sapiens).

`Cn1ncnc1-c1cc(C(=O)N[C@H]2CNCC[C@@H]2c2ccc(C(F)(F)F)cc2)oc1Br` (racemic) [Compound 3, 5-bromo-4-(1-methyl-1H-1,2,4-triazol-5-yl)-N-(3,4-trans-4-(4-trifluoromethylphenyl)piperidin-3-yl)furan-2-formamide]: the IC50 on Akt1 is 0.043 µM; in experiment [1] (Homo sapiens), 13 µM; in experiment [2] (Homo sapiens), 8.9 µM.

As to `CCc1c(-c2ncnn2C)c(Br)n(C)c1C(=O)N[C@H]1CNCC[C@@H]1c1cccc(C(F)(F)F)c1` (racemic) [Compound 4, 5-bromo-3-ethyl-1-methyl-4-(1-methyl-1H-1,2,4-triazol-5-yl)-N-(3,4-trans-4-(3-trifluoromethylphenyl)piperidin-3-yl)-1H-pyrrole-2-formamide], the IC50 at Akt1 was 0.048 µM; in experiment [1] (Homo sapiens), 5.19 µM; in experiment [2] (Homo sapiens), 15.6 µM.

On to `Cc1sc(C(=O)N[C@H]2CNCC[C@@H]2c2ccc(F)c(F)c2)cc1-c1c(Cl)cnn1C` (racemic) [Compound 5, 5-methyl-4-(4-chloro-1-methyl-1H-pyrazol-5-yl)-N-(3,4-trans-4-(3,4-difluorophenyl)piperidin-3-yl)thiophene-2-formamide], for which the results for the IC50 (at Akt1; in experiment [1] (Homo sapiens); in experiment [2] (Homo sapiens)) were 0.121 µM, 14.3 µM and 6.8 µM, respectively.

As to `Cc1[nH]c(C(=O)N[C@H]2CNCC[C@@H]2c2ccncc2)cc1-c1c(Br)cnn1C` (racemic) [Compound 6, 5-methyl-4-(4-bromo-1-methyl-1H-pyrazol-5-yl)-N-(3,4-trans-4-(pyridin-4-yl)piperidin-3-yl)-1H-pyrrole-2-formamide], the figures for the IC50 (at Akt1; in experiment [1] (Homo sapiens); in experiment [2] (Homo sapiens)) were 0.032 µM, 3.68 µM and 10.8 µM, respectively.

Take `Cc1cccc([C@H]2CCNC[C@@H]2NC(=O)c2cc(Cl)c(-c3ncnn3C)o2)c1` (racemic) [Compound 7, 4-chloro-5-(1-methyl-1H-1,2,4-triazol-5-yl)-N-(3,4-trans-4-(3-methylphenyl)piperidin-3-yl)furan-2-formamide]: the IC50 at Akt1 was 0.062 µM; in experiment [1] (Homo sapiens), 3.88 µM; in experiment [2] (Homo sapiens), 8.3 µM.

As for `CCc1sc(C(=O)N[C@H]2CNCC[C@@H]2c2cnc3ccccc3c2)cc1-c1c(C(C)C)cnn1C` (racemic) [Compound 9], the IC50 on Akt1 was 0.088 µM; in experiment [1] (Homo sapiens), 0.94 µM; in experiment [2] (Homo sapiens), 2.35 µM.

In the case of `NC1(C(=O)N[C@@H](CCO)c2ccc(Cl)cc2)CCN(c2nc[nH]c3nccc2-3)CC1` [AZD5363, reference compound], the IC50 was 7.27 µM in experiment [1] and 5.2 µM in experiment [2].
